Columns and labels:
Experiment in all cases: relative viability (nuclei count vs DMSO), 5 days (fraction); higher = more cells survive
QS11 + Crizotinib = compound: C1CC2=C(C1)C=C(C=C2)OC3=NC(=C4C(=N3)N(C=N4)CC5=CC=C(C=C5)C6=CC=CC=C6)N[C@@H](CC7=CC=CC=C7)CO [QS11] + C[C@@H](Oc1cc(-c2cnn(C3CCNCC3)c2)cnc1N)c1c(Cl)ccc(F)c1Cl [Crizotinib] (partner 1 µM)
Outline: (§1)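 After 5 days of treatment, lung cancer cells in 1536-well plates were fixed and stained in a single step (final 0.05% Triton X-100, 1% formaldehyde, 1 ug/ml Hoechst) and their nuclei counted on 4× images. Treatment had been applied by pin tool the day after seeding as one drug alone or as a fixed anchor-drug dose with five library-drug doses (not always all listed) in √10 steps. Relative viability is the nuclei count of treated wells divided by that of vehicle wells, and values are medians of duplicate plates.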

QS11 + Vorinostat = compound: C1CC2=C(C1)C=C(C=C2)OC3=NC(=C4C(=N3)N(C=N4)CC5=CC=C(C=C5)C6=CC=CC=C6)N[C@@H](CC7=CC=CC=C7)CO [QS11] + O=C(CCCCCCC(=O)Nc1ccccc1)NO [Vorinostat] (partner 1 µM)
Outline: as §1

[1] = compound: C[As](C)SC[C@H](NC(=O)CC[C@H](N)C(=O)O)C(=O)NCC(=O)O [Darinaparsin] + CC1(C)CCC(c2ccc(Cl)cc2)=C(CN2CCN(c3ccc(C(=O)NS(=O)(=O)c4ccc(N[C@H](CCN5CCOCC5)CSc5ccccc5)c(S(=O)(=O)C(F)(F)F)c4)cc3)CC2)C1 [Navitoclax] (partner 0.5 µM)
Outline: as §1

Darinaparsin + Olaparib = compound: C[As](C)SC[C@H](NC(=O)CC[C@H](N)C(=O)O)C(=O)NCC(=O)O [Darinaparsin] + O=C(c1cc(Cc2n[nH]c(=O)c3ccccc23)ccc1F)N1CCN(C(=O)C2CC2)CC1 [Olaparib] (partner 8 µM)
Outline: as §1

Row | Cell Line | relative viability (QS11 + Crizotinib; first compound 0.08 µM) | relative viability (QS11 + Crizotinib; first compound 0.253 µM) | relative viability (QS11 + Crizotinib; first compound 2.53 µM) | relative viability (QS11 + Crizotinib; first compound 8 µM) | relative viability (QS11 + Vorinostat; first compound 0.08 µM) | relative viability (QS11 + Vorinostat; first compound 0.253 µM) | relative viability (QS11 + Vorinostat; first compound 2.53 µM) | relative viability (QS11 + Vorinostat; first compound 8 µM) | relative viability ([1]; first compound 0.08 µM) | relative viability ([1]; first compound 0.8 µM) | relative viability ([1]; first compound 2.53 µM) | relative viability ([1]; first compound 8 µM) | relative viability (Darinaparsin + Olaparib; first compound 0.08 µM) | relative viability (Darinaparsin + Olaparib; first compound 2.53 µM) | relative viability (Darinaparsin + Olaparib; first compound 8 µM) | relative viability (QS11 + Crizotinib; first compound 0.8 µM) | relative viability (QS11 + Vorinostat; first compound 0.8 µM) | relative viability (Darinaparsin + Olaparib; first compound 0.8 µM)
1 | HCC-366 | 0.565 | 0.542 | 0.292 | 0.324 | 0.353 | 0.283 | 0.152 | 0.161 | 1.3 | 1.06 | 1.12 | 1.41 | 0.502 | 0.328 | 0.42 | – | – | –
2 | HCC-827 | 0.917 | 0.914 | 0.854 | 0.787 | 0.749 | 0.927 | 0.944 | 0.899 | 1.07 | 1.07 | 1.05 | 1.05 | 0.784 | 0.65 | 0.759 | 0.643 | 0.672 | 0.638
3 | HOP-62 | 0.853 | 0.863 | 0.703 | 0.45 | 0.556 | 0.564 | 0.416 | 0.447 | 1.39 | 1.2 | 0.963 | 1.13 | 0.56 | 0.402 | 0.525 | 0.846 | 0.533 | 0.487
4 | IA-LM | 0.697 | 0.94 | 0.693 | 0.712 | 0.926 | 1.13 | 0.806 | 0.88 | 1.15 | 0.974 | 0.969 | 0.739 | 0.93 | 0.982 | 0.884 | 0.675 | 0.674 | 0.936
5 | LC-2-ad | 0.468 | 0.479 | 0.443 | 0.495 | 0.748 | 0.739 | 0.671 | 0.74 | 0.551 | 0.324 | 0.421 | 0.487 | 0.739 | 0.669 | 0.719 | 0.398 | 0.531 | 0.748
6 | LCLC-103H | 1.01 | 1.08 | 1 | 1.08 | 0.724 | 0.783 | 0.799 | 0.734 | – | – | – | – | 0.882 | 0.742 | 0.861 | 0.808 | – | 0.698
7 | LK-2 | 0.25 | 0.221 | 0.266 | 0.214 | 0.282 | 0.27 | 0.323 | 0.28 | 0.968 | 0.709 | 0.746 | 1.07 | 0.727 | 0.644 | 0.731 | 0.215 | 0.467 | 0.546
8 | LOU-NH91 | 0.713 | 0.709 | 0.694 | 0.744 | 0.896 | 0.858 | 0.936 | 0.916 | 0.699 | 0.701 | 0.642 | 0.604 | 0.932 | 0.912 | 0.964 | – | 0.871 | 0.869
9 | LU99A | 0.554 | 0.586 | 0.446 | 0.385 | 0.432 | 0.438 | 0.515 | 0.464 | 0.77 | 0.886 | 0.777 | 0.944 | 0.275 | 0.125 | 0.246 | 0.544 | 0.51 | 0.252
10 | LXF-289 | 0.814 | 0.807 | 0.687 | 0.617 | 0.772 | 0.828 | 0.719 | 0.637 | 1 | 0.975 | 0.809 | 1.05 | 1.46 | 0.841 | 1.03 | 0.678 | 0.724 | 1.09
11 | NCI-H358 | 0.723 | 0.525 | 0.402 | 0.379 | 0.64 | 0.602 | 0.65 | 0.49 | – | – | – | – | 0.701 | 0.585 | 0.569 | 0.457 | 0.782 | 0.61
12 | NCI-H522 | – | – | – | – | 0.799 | 0.871 | 1 | 0.999 | – | – | – | – | 0.621 | 0.703 | 0.543 | – | 0.766 | 0.718
13 | NCI-H650 | 0.722 | 0.726 | 0.55 | 0.607 | 0.496 | 0.414 | 0.416 | 0.45 | – | – | – | – | 0.368 | 0.418 | 0.34 | 0.753 | 0.333 | 0.361
14 | NCI-H661 | 0.887 | 1.08 | 0.872 | 0.985 | 0.786 | 0.805 | 0.804 | 0.672 | – | – | – | – | 0.799 | 0.699 | 0.815 | 0.753 | 0.632 | 0.787
15 | NCI-H1299 | 0.998 | 0.947 | 0.892 | 0.699 | – | – | – | – | 1.03 | 1.08 | 1.04 | 1.1 | 1.02 | 0.98 | 0.981 | 0.948 | – | 0.928
16 | NCI-H1395 | – | – | – | – | 0.649 | 0.752 | 0.814 | 0.823 | 1.15 | 1.06 | 1.03 | 0.902 | 0.457 | 0.407 | 0.404 | – | 0.772 | 0.441
17 | NCI-H1563 | 0.836 | 0.937 | 0.86 | 0.814 | – | – | – | – | – | – | – | – | – | – | – | 0.925 | – | –
18 | NCI-H1648 | – | – | – | – | 0.506 | 0.666 | 0.505 | 0.577 | – | – | – | – | – | – | 1.05 | – | 0.517 | 0.765
19 | NCI-H1703 | 1.08 | 0.749 | 0.73 | 0.951 | – | – | – | – | 1.63 | 1.27 | 1.32 | 0.926 | 0.5 | 0.389 | 0.516 | 0.585 | – | 0.587
20 | NCI-H1792 | – | 1.06 | 1.11 | 1.33 | – | – | – | – | 1.03 | 0.652 | 0.393 | 0.665 | 0.412 | – | 0.368 | 0.662 | – | 0.496
21 | NCI-H1793 | – | – | – | – | 0.734 | 0.528 | 0.88 | 0.702 | 0.649 | 0.366 | 0.333 | 0.442 | 1 | – | 1.03 | – | 0.808 | 0.832
22 | NCI-H2342 | – | – | – | – | 0.759 | 0.733 | 0.669 | 0.746 | – | – | – | – | 0.484 | 0.461 | 0.415 | – | 0.947 | 0.398
23 | SW 900 | – | – | – | – | 0.295 | 0.378 | 0.457 | 0.348 | – | – | – | – | 0.837 | 0.85 | 0.773 | – | 0.452 | –

From the supplement of paper PMC10307832
